Broadly, the IC50 is the point on the concentration scale where inhibition reaches its midpoint. Usually Ki stands for the dissociation constant of the complex between target and ligand, obtained from inhibition or displacement.

This note sets out measurements from ChEMBL document CHEMBL1148451, “Receptor flexibility in the in silico screening of reagents in the S1' pocket of human collagenase” (J Med Chem, 2004).

This assay deals with T1, Interstitial collagenase (Homo sapiens, UniProt P03956).
T1 sequence (P03956 whole entry): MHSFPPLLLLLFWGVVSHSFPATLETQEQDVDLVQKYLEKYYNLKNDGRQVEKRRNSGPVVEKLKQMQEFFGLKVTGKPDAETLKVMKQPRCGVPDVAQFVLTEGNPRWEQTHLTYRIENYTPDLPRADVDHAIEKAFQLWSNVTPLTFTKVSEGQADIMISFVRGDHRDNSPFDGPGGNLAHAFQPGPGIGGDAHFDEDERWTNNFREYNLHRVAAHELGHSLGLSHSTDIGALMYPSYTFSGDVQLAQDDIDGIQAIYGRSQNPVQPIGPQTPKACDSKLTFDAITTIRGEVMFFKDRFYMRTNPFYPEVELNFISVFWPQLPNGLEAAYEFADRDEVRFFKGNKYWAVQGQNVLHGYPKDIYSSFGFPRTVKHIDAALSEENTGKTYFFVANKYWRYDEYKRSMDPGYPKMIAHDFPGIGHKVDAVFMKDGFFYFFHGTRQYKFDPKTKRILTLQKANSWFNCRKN
The assay is described as follows: Inhibition of human matrix metalloprotease-1.

With `CC(C)C(NS(=O)(=O)N1CCC(Oc2ccc(Cl)cn2)CC1)C(=O)NO` (stereo not given), the IC50 worked out at 360 nM. That is a sub-micromolar value.
Consider `CC#CCOc1ccc(S(=O)(=O)N2CCc3ccccc3C2C(=O)NO)cc1` (stereo not given), for which the IC50 was 121 nM.
As to `O=C(CN(Cc1ccc([N+](=O)[O-])cc1)S(=O)(=O)c1ccc(C(F)(F)F)cc1)NO`, the affinity corresponds to a Ki of 3 nM.
As for `O=C(CC1(S(=O)(=O)c2ccc(Oc3ccc(Cl)cc3)cc2)CCOCC1)NO`, affinity was put at a Ki of 70 nM.
On to `CCOC(=O)[C@H](C)NC(=O)[C@H](CC(C)C)NC(=O)[C@@H](CC(=O)NO)CC(C)C`, for which 40 nM corresponded to half-maximal inhibition (IC50). This counts as double-digit nanomolar.
In turn, `O=C(NO)C1CCCCN1S(=O)(=O)N1CCN(c2ccccn2)CC1` (stereo not given) displayed a Ki of 423 nM.
As for `O=C(NO)C1CCCCN1S(=O)(=O)N1CCC(Oc2ccc(-n3ccnc3)cc2)CC1` (stereo not given), the affinity, expressed as Ki, was 224 nM.
`CNC(=O)C(NC(=O)C(CC(C)C)C(NS(=O)(=O)c1cccc2cccc(=O)n12)C(=O)NO)C(C)(C)C` (stereo not given) had an IC50 of 1.3 nM.
On the same count and under the same terms, as for `CCCCOc1ccc(S(=O)(=O)N2CC(N3CCOCC3)CC2C(=O)NO)cc1` (stereo not given), the figure is 920 nM; as for `Cc1ccc(COc2ccc(S(=O)(=O)N3CCCC(C)(O)C3C(=O)NO)cc2)c(C)c1` (stereo not given), 10 nM.
